# Measured values published in patent US10010547B2 (CASCADIAN THERAPEUTICS, INC., priority 2014, dated 2018).
# pIC50: −log10 of the molar value. Where two headings read alike, the source gives them in different places.
# Legend:
# [1] = target: Chk-1 kinase (Homo sapiens (Human), UniProt O14757); assay: Chk-1 Kinase Inhibiting Activity (33P-ATP filter assay, CHKtide substrate); assay type: biochemical; details: against Chk-1 kinase; read-out: IC50
# Summary of the method: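 Full-length N-terminal GST-tagged human Chk-1 from insect cells, 0.5 nM final, with 20 μM peptide substrate and 33P-ATP in HEPES pH 7.5 buffer with 1% DMSO. Reaction ran 120 minutes at room temperature; incorporated radioactivity captured on P81 filters and counted for IC50.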
# [2] = test system: MIA PaCa-2 cells; assay: Gemcitabine Combination Cell Assay (Cell Titer Glo); assay type: cell-based; details: MIA PaCa-2 cells, 72 h; for pIC50: Chk1 inhibitor alone, read-out: Chk1 IC50; for 10xLS: approximate concentration of Chk1 inhibitor that results in a 10-fold reduction in the IC50 of gemcitabine alone; for 2xLS: approximate concentration of Chk1 inhibitor that results in a two-fold reduction in the IC50 of gemcitabine alone
# Summary of the method: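 MIA PaCa-2 cells were treated 72 h with half-log dilutions of Chk1 inhibitor (top 3000 nM) and gemcitabine (top 100 nM), alone and in full matrix; viability by CellTiter-Glo luminescence. IC50s from four-parameter fit; Chk1 inhibitor concentrations giving two- and ten-fold lowering of gemcitabine IC50 were estimated.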
# Chk-1 kinase, sequence (O14757 whole entry): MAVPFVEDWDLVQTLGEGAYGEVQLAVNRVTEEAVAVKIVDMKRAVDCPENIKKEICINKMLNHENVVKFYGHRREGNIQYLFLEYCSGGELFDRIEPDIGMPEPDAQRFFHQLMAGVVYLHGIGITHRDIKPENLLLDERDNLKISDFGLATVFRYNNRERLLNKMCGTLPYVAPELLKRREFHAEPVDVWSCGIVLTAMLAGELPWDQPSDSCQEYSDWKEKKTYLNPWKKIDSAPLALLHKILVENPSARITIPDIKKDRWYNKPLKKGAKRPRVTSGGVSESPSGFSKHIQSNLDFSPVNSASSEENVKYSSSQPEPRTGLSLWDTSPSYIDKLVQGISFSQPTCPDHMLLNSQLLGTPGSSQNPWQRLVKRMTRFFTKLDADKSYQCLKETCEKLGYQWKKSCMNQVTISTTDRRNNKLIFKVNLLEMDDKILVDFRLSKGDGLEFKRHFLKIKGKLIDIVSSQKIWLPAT
Structure (SMILES),pIC50 [1],pIC50 ([2]; Homo sapiens),10xLS [2] [nM],2xLS [2] [nM],pIC50 [2]
"COC(=O)c1cnc(Nc2cc(-c3ccc(C4CCNCC4)cc3OC)[nH]n2)cn1 [Example 71, methyl 5-[[5-[2-methoxy-4-(4-piperidyl)phenyl]-1H-pyrazol-3-yl]amino]pyrazine-2-carboxylate]",< 7.00,< 5.52,>3000,>3000,–
"CCN1CCC(OCc2ccc(-c3cc(Nc4cnc(C#N)cn4)n[nH]3)c(OC)c2)CC1 [Example 114, 5-[[5-[4-[(1-ethyl-4-piperidyl)oxymethyl]-2-methoxy-phenyl]-1H-pyrazol-3-yl]amino]pyrazine-2-carbonitrile]",9.70,–,<300,3,6.33
"COc1cc(CN2CCCC2)ccc1-c1cc(Nc2cnc(C#N)cn2)n[nH]1 [Example 101, 5-[[5-[2-methoxy-4-(pyrrolidin-1-ylmethyl)phenyl]-1H-pyrazol-3-yl]amino]pyrazine-2-carbonitrile]",10.26,6.70,<100,3,–
"COc1cc(C2(F)CNC2)ccc1-c1cc(Nc2cnc(C#N)cn2)n[nH]1 [Example 77, 5-[[5-[4-(3-fluoroazetidin-3-yl)-2-methoxy-phenyl]-1H-pyrazol-3-yl]amino]pyrazine-2-carbonitrile]",9.85,6.79,<100,<3,–
"COc1cc(CNCCN2CCOCC2)ccc1-c1cc(Nc2cnc(C#N)cn2)n[nH]1 [Example 9, 5-(5-{2-methoxy-4-[(2-morpholin-4-yl-ethylamino)-methyl]-phenyl}-1H-pyrazol-3-ylamino)-pyrazine-2-carbonitrile]",10.11,6.64,100,3,–
"COc1cc(C2CCN(CC(N)=O)CC2)ccc1-c1cc(Nc2cnc(C#N)cn2)n[nH]1 [Example 62, 2-[4-[4-[3-[(5-cyanopyrazin-2-yl)amino]-1H-pyrazol-5-yl]-3-methoxy-phenyl]-1-piperidyl]acetamide]",10.08,6.06,300,10,–
"COc1cc(N2CCNCC2)cc(F)c1-c1cc(Nc2cnc(C#N)cn2)n[nH]1 [Example 116, 5-[[5-(2-fluoro-6-methoxy-4-piperazin-1-yl-phenyl)-1H-pyrazol-3-yl]amino]pyrazine-2-carbonitrile]",10.11,6.68,100,3,–
"CCN1CCC(Oc2ccc(-c3cc(Nc4cnc(C#N)cn4)n[nH]3)c(OC)c2)CC1 [Example 134, 5-[[5-[4-[(1-ethyl-4-piperidyl)oxy]-2-methoxy-phenyl]-1H-pyrazol-3-yl]amino]pyrazine-2-carbonitrile]",9.96,6.45,100,3,–
"COc1cc(C2CCN(C(C)C)CC2F)ccc1-c1cc(Nc2cnc(C#N)cn2)n[nH]1 (stereo not drawn) [Example 88, 5-[[5-[4-(3-fluoro-1-isopropyl-4-piperidyl)-2-methoxy-phenyl]-1H-pyrazol-3-yl]amino]pyrazine-2-carbonitrile]",10.10,6.37,300,10,–
